{"source": "patent US20260027096A1", "about": "“PHD INHIBITORS” (Oxford University Innovation Limited, priority 2023, published 2026)", "key": {"[1]": {"system": "HIF-1α in MOLM13, OCI-AML3, MV411 and THP-1 cells", "test": "Western blot of HIF-1α in human AML cell lines", "format": "cell-based", "settings": "for HIF-1α protein level (immunoblot): human AML cell lines, 50 μM, 48 hrs", "procedure": "Total protein extracts (45 μg) were subjected to SDS-PAGE (NuPAGE™ 4-12% Bis-Tris Plus Gel, ThermoFisher Scientific, NP0323BOX) and then transferred onto a polyvinylidene difluoride membranes using wet transfer. Membranes were blocked in 5% milk-TBST (TBS with 0.1% Tween20) and probed with anti-HIF1-α (Novus Biological, NB100-105, 1:1000, ON at 4° C.) and anti-β-actin (Cell Signalling Technology, #3700, 1:10 000, ON at 4° C.). After incubation with appropriate horseradish peroxidase- coupled secondary antibody (Cell Signalling Technology, Anti-mouse IgG, #7076, 1:2000, 2 h at room temperature), proteins were detected with Clarity Western ECL Substrate (BioRad, #1705061) and acquired on the Amersham Imager 600 (GE Healthcare Life Sciences).\nEquipped with currently available PHD inhibitors and newly generated IOX5 (68, example 46), the impact of pharmacological PHD inhibition on AML cells was assessed. […] Thus, while PHD inhibition consistently stabilises HIF-1α protein across all tested AML cell lines, HIF-2α stabilisation is variable and cell line-specific."}, "[2]": {"system": "primary human AML cells (patient samples)", "test": "Apoptosis of primary human AML patient samples", "format": "cell-based", "settings": "50 μM", "procedure": "Frozen AML samples were retrieved from Barts Cancer Institute Biobank and quickly thawed at 37° C. Upon thawing, T cells were depleted from all samples using EasySep™ Human TCR Alpha/Beta Depletion Kit (Stem Cell Technologies, #17847). Enriched samples were plated in concentration 0.4-1.0×10^6/mL in Myelocult H5100 medium (Stem Cell Technologies, #05150) supplemented with 20 ng/ml IL-3, G-CSF and TPO (Biolegend) in co-culture with irradiated MS-5 cells and treated with 50 μM Dap, 50 μM IOX5 (68, example 46), 1 μM Venetoclax or vehicle control for 7 days. After 3 days of treatment, half the sample was used for plating CFU assays and initial analyses, the other half was given fresh medium containing the corresponding agent. After 7 days, viable cell numbers were counted, viability was assessed using Annexin V FITC/PI stain, cell cycle was measured using PI, and the expression of CD45, CD34, CD11b and CD14 was determined. CFC assays were counted 11 days after plating. Samples were deemed sensitive to treatment if either a decrease in viability or a decrease in proliferation, as validated by cell cycle phase distribution, was detected.\nTo investigate the clinical utility of PHD inhibition in human AML, it was next determined the impact of Dap or IOX5 (68, example 46) on AML patient samples (FIG. 29), focusing on poor-risk AML, which is characterised by a particularly low overall patient survival rate^73.\nFinally, the clinical applicability of PHD inhibition in AML was validated by treating independent patient-derived primary AML cells with Daprodustat (2) and IOX5 (68, example 46). […] Taken together, Examples 163 to 167 provide genetic and pharmacological evidence that PHD inhibition is a plausible therapeutic strategy in AML."}, "[3]": {"system": "OCI-AML3 cells in NBSGW recipient mice", "test": "OCI-AML3 xenotransplantation in NBSGW mice", "format": "in vivo, mouse", "settings": "i.p. twice daily for 21 days", "from_the_text": "(A) 100,000 THP-1 cells were transplanted into NBSGW recipient mice. […] (B-C) Percentage of human CD45+CD33+ and human CD45+CD14+ cells in the BM and spleen, respectively (n=4-5). (D) 100,000 OCI-AML3 cells were transplanted into NBSGW recipient mice. […] (E) Percentage of human CD45+CD33+CD14+ cells in the liver, BM and PB, respectively (n=3-7). (F) 2,000 LSK cells from iMLL-AF9;Control mice were sorted and transplanted into irradiated recipient mice. […] (H) LDA in secondary recipients transplanted with indicated doses of CD45.2+BM cells from primary recipients (n=9-10 per dose). (I) Plot showing Poisson statistical analysis. Circles represent the percentages of negative mice for each cell dose, triangles represent any data values with zero negative responses. Solid lines indicate the best-fit linear model, and dotted lines represent 95% CIs. LSC frequencies were calculated using the ELDA software 121. (J) Steady-state analyses of 8-to 10-week-old C57B16 mice treated with IOX5 or vehicle control 2× daily via i.p. injection for 14 days (n=5-7). (K) PB counts (n=6). (L) Total BM cellularity (n=5-9). (M) Total numbers of HSC, MPP, HPC-1 and HPC-2 populations (n=5-7). Data represent mean±SEM; * p<0.05; ** p<0.01; *** p<0.001; **** p<0.0001. […]"}}, "note": "Entries after “also recorded” stand apart in the source; their conditions may differ."}
{"smiles": "O=C(O)CNC(=O)c1c(O)n(C2CCCCC2)c(=O)n(C2CCCCC2)c1=O", "note": "[Daprodustat, daprodustat, reference compound]", "values": [{"measurement": "HIF-1α protein level (immunoblot)", "setting": "[1]", "result": "strongly stabilised HIF-1a; also recorded: increased HIF-1α levels"}, {"measurement": "apoptosis of primary human AML cells", "setting": "[2]", "result": "significantly increased primary human AML cell apoptosis"}, {"measurement": "apoptosis of primary human AML cells", "setting": "[2]; listed as Dap", "result": "clearly increased apoptosis"}]}
{"smiles": "O=C(NCC1CCC(C(F)(F)F)CC1)c1c[nH]c(-n2cccn2)cc1=O", "note": "(stereo not shown) [IOX5]", "values": [{"measurement": "HIF-1α protein level over time (western blot)", "setting": "[1]; THP-1 cells, continuous treatment for 96 hours", "result": "substantially stabilised after 3-12 hours, its levels decreased between 24-48 hours, then increased 72-96 hours after treatment initiation"}, {"measurement": "HIF-1α protein level (immunoblot)", "setting": "[1]", "result": "strongly stabilised HIF-1a; also recorded: increased HIF-1α levels"}, {"measurement": "apoptosis of primary human AML cells", "setting": "[2]", "result": "clearly increased apoptosis; also recorded: significantly increased primary human AML cell apoptosis"}, {"measurement": "leukaemic burden", "setting": "[3]", "result": "significantly reduced leukaemic burden"}]}
